Reference: US20210395226A1, “SUBSTITUTED ARYL COMPOUND AND PREPARATION METHOD THEREFOR AND USE THEREOF” (SICHUAN KELUN-BIOTECH BIOPHARMACEUTICAL CO., LTD., priority 2018, published 2021)

Legend:
[1] = biological target: T1, Adenosine A2a receptor (human) membrane (Homo sapiens, UniProt P29274); test: Determination of competitive inhibition constant (Ki) for adenosine A2a receptor, [3H]-CGS-21680 radioligand; format: binding; details: for Ki: human A2a receptor membrane, 6.0 nM [3H]-CGS-21680, read-out: Ki(A2a); for Ki(A1)/Ki(A2a): selectivity ratio A1 over A2a
T1 construct: purchased PerkinElmer RBHA2AM400UA
T1 sequence (P29274 whole entry): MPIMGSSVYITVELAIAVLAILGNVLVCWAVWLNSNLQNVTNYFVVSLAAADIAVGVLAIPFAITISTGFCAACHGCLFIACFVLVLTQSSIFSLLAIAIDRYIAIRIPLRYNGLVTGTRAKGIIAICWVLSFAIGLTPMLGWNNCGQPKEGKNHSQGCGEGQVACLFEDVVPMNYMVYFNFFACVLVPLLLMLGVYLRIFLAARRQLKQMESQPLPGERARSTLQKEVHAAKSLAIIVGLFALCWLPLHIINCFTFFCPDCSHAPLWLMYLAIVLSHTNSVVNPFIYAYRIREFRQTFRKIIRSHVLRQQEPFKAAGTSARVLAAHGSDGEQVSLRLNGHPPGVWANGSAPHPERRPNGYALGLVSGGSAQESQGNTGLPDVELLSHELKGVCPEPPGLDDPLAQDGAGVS
Summary of the method: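 Human A2a receptor membranes (5.0 μg/well) were incubated 2 h at room temperature with [3H]-CGS-21680 (working concentration 6.0 nM) in 50 mM Tris-HCl pH 7.4, 10 mM MgCl2, 1 mM EDTA. Bound label was collected on PEI-treated GF/C filters and scintillation counted. Inhibition was scaled between 0.5% DMSO and 1000 nM CGS-15943 controls, IC50 was fitted, and Ki = IC50/(1 + [ligand]/Kd).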

[2] = biological target: T2, ADORA2a/CHOK1 cells (Homo sapiens, UniProt P29274); test: Inhibitory activity for ADORA2a/CHOK1 cells (cAMP detection, adenosine as agonist); format: cell-based; details: for inhibition at 0.1 µM: CHO-K1, 100 nM compound, read-out: Inhibition rate at 100 nM; for inhibition at 1 µM: CHO-K1, 1000 nM compound, read-out: Inhibition rate at 1000 nM
T2 construct: host or cells: CHO-K1
T2 sequence (P29274 whole entry): as above
Procedure: Test Example 2: Study on Inhibitory Activity for ADORA2a/CHOK1 Cells
ADORA2a/CHOK1 cells (Cobai, CBP71017).
FBS was added to Ham's F-12 medium to a concentration of 10% (v/v), Zeocin was added to a final concentration of 200 μg/mL, and Hygromycin B was added to a final concentration of 100 μg/mL, and the resulting mixture was stored at 4° C. for later use.
A certain amount of adenosine was precisely weighed and placed into a 1.5 mL EP tube, then a certain volume of cell culture medium was added, the resulting mixture was incubated at 37° C. for dissolution, thereby a 10 mM stock solution was prepared. The stock solution was diluted with cell culture medium at 1:1000 to get 10 μM adenosine solution.
The compound to be tested was dissolved in DMSO to form a 10 mM stock solution, and the stock solution was stored in a refrigerator at 4° C. for later use. The stock solution was diluted with the 10 μM of adenosine solution to 2000 nM or 200 nM for later test.
(1) CHO-K1 cells stably expressing ADORA2A receptor were cultured in a 37° C., 5% CO2 cell incubator. When the cell confluence reached about 80%, the cells were digested by trypsin, dispersed and counted; (2) the cell concentration was adjusted to 6×10^5 cells/mL according to the counting results; (3) the cells was inoculated into a white 384-well cell culture plate at 5 μL per well (about 3000 cells/well).
All groups were provided with multiple wells, the adenosine-free cell culture medium was added to the wells of the Blank group (5 μL/well); 10 μM adenosine solution was added to the wells of the Agonist group (5 μL/well); the diluted compound was added to the wells of the test compound group (5 μL/well). After the addition of the compound was completed, the 384-well plate was centrifuged at 2500 rpm for 30 seconds to fully mix the compound and the medium, then placed in a 25° C. incubator and incubated for 30 min.
A certain volume of cAMP-d2 was taken, and diluted by adding Lysis & Detection Buffer at the ratio of 1:5 to prepare Solution A.
A certain volume of cAMP-Cryptate was taken, and diluted by adding Lysis & Detection Buffer at the ratio of 1:5 to prepare Solution B.
(2) After 30 min of incubation in step 2 was completed, addition of detection solution was carried out. The 384-well plate was taken out, 5 μL of Solution A was added to each well, and then 5 μL of Solution B was added to each well, then the 384-well plate was covered with sealing membrane, centrifuged at 2500 rpm for 30 s (to fully mix the detection solution and medium), and incubated in a thermostat at 25° C. for 1 h.
After the incubation, the 384-well plate was taken out, and detected by PHERA Star FS to read data, detection wavelength: 620 nm/665 nm.
inhibition rate %=(1−(RCompound−RBlank)/(RAgonist−RBlank))*100%
wherein, RCompound represented the R Value of the test compound group, RAgonist represented the R value of the Agonist group, and RBlank represented the R value of the Blank group.

Ki [1]	Ki(A1)/Ki(A2a) [1]	inhibition at 0.1 µM [2]	inhibition at 1 µM [2]	Structure (SMILES)
9.6 nM	146.3	33.9%	94.4%	Cc1cc(-c2cnc(NC(=O)N3CCOCC3)nc2-c2ccc(F)cc2)cc(Cl)n1 [Compound 19, N-(5-(2-chloro-6-methylpyridin-4-yl)-4-(4-fluorophenyl)pyrimidin-2-yl) morpholine-4-carboxamide]
3.4 nM	59.9	72%	112%	Cc1ncnc2ccc(-c3cnc(NC(=O)N4CCOCC4)nc3-c3ccc(F)cc3)cc12 [Compound 11, N-(4-(4-fluorophenyl)-5-(4-methylquinazolin-6-yl)pyrimidin-2-yl) morpholine-4-carboxamide]
